In patent publication US20210130291A1, “METHODS FOR TREATING DIABETES USING VDAC1 INHIBITORS” (THE NATIONAL INSTITUTE FOR BIOTECHNOLOGY IN THE NEGEV LTD., priority 2016, published 2021):

Columns and labels:
db/db mice = experiment: Oral (gavage) administration of VBIT-4 to db/db mice, blood glucose; type: in vivo, mouse
Experimental: Next, the effect of orally administered VBIT-4 on blood glucose in db/db mice was examined. VBIT-4 at the indicated doses or vehicle was administered by gavage to db/db mice from the age of 6-11 weeks. Blood was sampled and […] once a week. Blood glucose was measured by a handheld device ContourXt (Bayer) using blood glucose strips.

[1] = system: islets of diabetic db/db mice; experiment: ATP content, ATP release and GSIS in islets of diabetic db/db mice; type: cell-based, mouse
Experimental: 5 weeks old db/db mice and control (C57/bl) (Janvier Laboratory, France), weighing 18-25 g, were used throughout the experiments. They were given a standard pellet diet (B&K) and tap water ad libitum. The experimental procedures were approved by the Ethics Committee for Animal Research at Lund University. Isolation of pancreatic islets was performed by retrograde injection of a collagenase solution via the bile-pancreatic duct and islets were then collected under a stereomicroscope at room temperature.
Human pancreatic islets were collected under a stereomicroscope at room temperature and cultured at 5.5 or 20 mM glucose in the absence or presence of test agents for 72 h. Thereafter the islets were washed and preincubated for 30 min at 37° C. in Krebs Ringer bicarbonate buffer, pH 7.4, supplemented with N-2 hydroxyethylpiperazine-N′-2-ethanesulfonic acid (10 mM), 0.1% bovine serum albumin, and 1 mM glucose. Each incubation vial contained 12 islets in 1.0 ml KRB buffer solution and treated with 95% O2 and 5% CO2 to obtain constant pH and oxygenation. After preincubation, the buffer was changed to a medium containing either 1 mM or 16.7 mM glucose. The islets were then incubated for 1 h at 37° C. in a metabolic shaker (30 cycles per min). Immediately after incubation an aliquot of the medium was removed for analysis of insulin and the islets were incubated in acid-ethanol for insulin content determination by radioimmunoassay.
ATP release from isolated mouse or human islets or from INS-1 cells after transfection with mitochondrial targeted VDAC1 (mtVDAC1) or plasma membrane targeted VDAC1 (plVDAC1) plasmids was determined using a luminometric assay kit according to manufacturer's recommendation (Biovision). After incubation of islets (50/vial) or INS-1 cells for 60 min, an aliquot of the media was removed for subsequent measurements of released ATP. Then the islets or INS-1 cells were washed 3 times and the lysates were used for measurements of ATP and protein contents followed the protocol provided by the vendor.

human islet cells = experiment: Cellular reductive capacity (MTS) in human islets; type: cell-based; details: VDAC1 antibody 10 nM
Experimental: The reductive capacity of cells was measured either on INS-1 cells or dispersed human islet cells when the INS-1 cells or islets were subjected to 5 or 20 mM glucose for 72 h in the absence or presence of test agents or after down-regulation of VDAC1 and VDAC2 as described elsewhere (35, 40). Measurement of reductive capacity was performed using the MTS reagent kit according to the manufacturer's instructions (Promega). Apoptosis was measured with the Cell Death Kit (Roche Diagnostics), which quantifies the appearance of cytosolic nucleosomes.

| Compound | blood glucose (db/db mice; daily gavage for 5 weeks, age 6-11 weeks (FIG. 8)) | reduction of blood glucose concentration (db/db mice; gavage, 10 mg/Kg body weight, 5 weeks) | insulin secretion in low glucose ([1]; islets from hyperglycemic db/db mice (FIG. 6c)) | cellular ATP levels ([1]; islets from hyperglycemic db/db mice, acute addition 1 h, VDAC1 antibody 10 nM, metformin 20 μM (FIG. 6a)) | ATP release ([1]; islets from hyperglycemic db/db mice, acute addition 1 h, VDAC1 antibody 10 nM, metformin 20 μM (FIG. 6b)) | insulin secretion at 16.7 mM glucose ([1]; islets from hyperglycemic db/db mice, compared to control (FIG. 6c)) | cellular reductive capacity (metabolism) in T2D islets (human islet cells; metformin 20 μM (FIG. 6h)) | cellular reductive capacity after culture at 5 mM glucose (human islet cells; human islets, metformin 20 μM (FIG. 6g)) |
| --- | --- | --- | --- | --- | --- | --- | --- | --- |
| O=C(CC(CO)N1CCN(c2ccc(OC(F)(F)F)cc2)CC1)Nc1ccc(Cl)cc1 (racemic) [VBIT-4, N-(4-chlorophenyl)-4-hydroxy-3-(4-(4-(trifluoromethoxy)phenyl)-piperazin-1-yl)butanamide] | reduced blood glucose | the reduction was significant along the entire trail period | – | – | – | – | – | – |
| CN(C)C(=N)N=C(N)N [metformin] | – | – | no effect | increased its cellular levels | reduced ATP release | increased insulin secretion | markedly improved metabolism | no effect |
